The source of these data is PMC10536928, “Discovery of New Pyrrolo[2,3-d]pyrimidine Derivatives as Potential Multi-Targeted Kinase Inhibitors and Apoptosis Inducers” (Pharmaceuticals, 2023).

Each structure is given as a SMILES string. Bounds are passed on as bounds.

For series [1], the system named is breast cancer (MDA-MB-231). In words: MTT cytotoxicity assay. To be noted: Homo sapiens, 24 h exposure, mean ± SD of triplicate. The format is cell-based. How it is done:
(§1) The cytotoxic effects of compounds 5a–m were evaluated using a standard MTT method against four different cancer cell lines, namely mammary gland cancer (MCF-7), hepatocellular carcinoma (HepG2), breast cancer (MDA-MB-231), and epithelioid cervix carcinoma (HeLa). […] These findings highlight the potential of these compounds as candidates for further development as cytotoxic agents for cancer treatment.
(§2) The cytotoxicity of compounds 5a–m was assessed against various cancer cell lines and one normal cell line using the described methodology. In brief, the cells were cultured in 96-well plates with a density of 1.0 × 10^4 cells per well, supplemented with 10% fetal bovine serum (FBS), an antibiotic cocktail, and RPMI 11,640 medium. The cells were then incubated for 48 h with 5% CO2 and 100% relative humidity at 37 °C. […] Following treatment, the addition of 20 µL of MTT solution was added to each well and incubation was continued for another 4 h, after which dimethyl sulfoxide (100 µL) was used to dissolve the resulting insoluble formazan. The absorbance was measured at 570 nm using a BioTek EXL 800 plate reader (Agilent Technologies, CA, USA). By comparing the absorbance of treated samples to untreated samples, the relative cell viability percentage was calculated as (A570 of treated samples/A570 of untreated sample) × 100. The IC50 values were determined based on triplicate measurements.
Background: Formazan colour is commonly taken as a measure of viable cells.

Series [2] deals with hepatocellular carcinoma (HepG2). In words: MTT cytotoxicity assay. To be noted: Homo sapiens, 24 h exposure, mean ± SD of triplicate. Format: cell-based. The protocol:
as §1, §2

Series [3] relates to mammary gland cancer (MCF-7). In words: MTT cytotoxicity assay. Format: cell-based. The conditions noted are these: Homo sapiens, MCF7, 24 h, 24 h exposure, mean ± SD of triplicate. How it is done:
as §1, §2

The subject of series [4] is epithelioid cervix carcinoma (HeLa). Briefly: MTT cytotoxicity assay. Format: cell-based. To be noted: Homo sapiens, 24 h exposure, mean ± SD of triplicate.
Series [5] deals with T1, EGFR (Homo sapiens, UniProt P00533).
T1 construct: purchased
Briefly: In vitro protein kinase inhibition assay (ELISA kit). Format: biochemical. The conditions noted are these: triplicate. How it is done: (§3) In accordance with the documented procedures, fifteen derivatives of the synthesized compounds were evaluated for their inhibitory effects on EGFR, VEGFR-2, Her2, and CDK2 using specific human ELISA kits (Enzyme-Linked Immunosorbent Assay) designed for each respective kinase enzyme. Initially, various concentrations of the synthesized compounds were combined with specific antibodies for each enzyme in individual wells of a 96-well plate, followed by incubation at room temperature for 2.5 h. Subsequently, the plate was washed, and a biotin antibody (100 µL), prepared in-house, was added and allowed to incubate at ambient temperature for 1 h. After another washing step, a solution of streptavidin (100 µL) was introduced to each well and left for 45 min at room temperature. Following a third round of washing, a TMB Substrate (100 µL) reagent was applied to all wells and incubated for 30 min at room temperature. Finally, the reaction was terminated by adding 50 µL of a stop solution, and the absorbance was directly measured at 450 nm. A standard curve was constructed, illustrating the relationship between concentration (X-axis) and absorbance (Y-axis).

Series [6] deals with T2, VEGFR2 (Homo sapiens, UniProt P35968).
T2 construct: purchased
The series is described as above. The format is biochemical. The conditions noted are these: triplicate. How it is done:
as §3

For series [7], the target named is T3, CDK2 (Homo sapiens, UniProt P24941).
T3 construct: purchased
The series is described as above. The format is biochemical. The conditions noted are these: triplicate. The protocol: as §3

Series [8] has as its target T4, Her2 (Homo sapiens, UniProt P04626).
T4 construct: purchased
The series is described as above. The format is biochemical. The conditions noted are these: triplicate. The protocol: as §3

Series [9] relates to four different cancer cell lines (MCF-7, HepG2, MDA-MB-231, HeLa). Briefly: MTT cytotoxicity assay, range over the four cell lines. Format: cell-based. The conditions noted are these: read-out: IC50 values, range over the tested cancer cell lines. How it is done: as §1, §2
For series [10], the system named is Bax. Briefly: Apoptotic protein levels assay (ELISA) in HepG2 cells. The format is cell-based. The conditions noted are these: 24 h, ELISA, control 67.09 ± 4.94. An excerpt:
(§4) To validate the mechanism of cell death and the induction of apoptosis caused by compound 5k, the expression levels of some apoptotic proteins were investigated. […] Specifically, the levels of caspase-3 (6.9 folds higher than the control) and Bax (2.6 folds higher than the control) were higher in the group treated with 5k compared to the control group. Caspase-3 is a key enzyme involved in the execution of apoptosis, while Bax is a pro-apoptotic protein that promotes cell death. […] Bcl-2 is a protein that inhibits apoptosis, so the lower levels of Bcl-2 in the 5k treated group further support the notion that treatment with 5k may induce apoptosis in HepG2 cells. […] These findings may have implications for the development of novel therapies for diseases involving abnormal cell death, including cancer. Further studies are warranted in order to elucidate the underlying mechanisms of action of compound 5k and to assess its potential therapeutic applications.
(§5) The ELISA technique was employed to assess the impact of compound 5k on the alteration of protein levels associated with caspase-3, BAX, and Bcl-2. Specifically, the following ELISA kits were utilized: KHO1091 (InvitrogenTM, Grand Island, NY, USA) for caspase-3, EIA-4860 and EIA-4487 for BAX, (DRU International INC., Mountainside, NJ, USA), and 99-0042 (InvitrogenTM, Grand Island, NY, USA) for Bcl-2 for the respective measurements. The experimental procedures were conducted according to the instructions provided by the manufacturers and our recently published article. Initially, HepG2 cells were cultured in triplicate in 96-well plates. Following a 24-h incubation period, the cells were subjected to various concentrations of compound 5k, while a control group was treated with 0.1% DMSO (V/V). After an additional 24-h incubation, the absorbance levels were assessed using a BioTek Synergy H1 Multi-mode Reader (Agilent Technologies, Santa Clara, CA, USA) at wavelengths ranging from 450 to 650 nm.
In general terms: An ELISA detects its analyte on a solid surface through an enzyme-linked reagent.

The test system of series [11] is Bcl-2. Described as above. Format: cell-based. The conditions noted are these: 24 h, ELISA, control 11.7 ± 0.36.
Excerpt: as §4, §5

For series [12], the system named is caspase-3. The description is as above. The format is cell-based. To be noted: 24 h, ELISA, control 66.28 ± 4.66.
Excerpt: as §4, §5

T2 sequence (P35968 20-1356): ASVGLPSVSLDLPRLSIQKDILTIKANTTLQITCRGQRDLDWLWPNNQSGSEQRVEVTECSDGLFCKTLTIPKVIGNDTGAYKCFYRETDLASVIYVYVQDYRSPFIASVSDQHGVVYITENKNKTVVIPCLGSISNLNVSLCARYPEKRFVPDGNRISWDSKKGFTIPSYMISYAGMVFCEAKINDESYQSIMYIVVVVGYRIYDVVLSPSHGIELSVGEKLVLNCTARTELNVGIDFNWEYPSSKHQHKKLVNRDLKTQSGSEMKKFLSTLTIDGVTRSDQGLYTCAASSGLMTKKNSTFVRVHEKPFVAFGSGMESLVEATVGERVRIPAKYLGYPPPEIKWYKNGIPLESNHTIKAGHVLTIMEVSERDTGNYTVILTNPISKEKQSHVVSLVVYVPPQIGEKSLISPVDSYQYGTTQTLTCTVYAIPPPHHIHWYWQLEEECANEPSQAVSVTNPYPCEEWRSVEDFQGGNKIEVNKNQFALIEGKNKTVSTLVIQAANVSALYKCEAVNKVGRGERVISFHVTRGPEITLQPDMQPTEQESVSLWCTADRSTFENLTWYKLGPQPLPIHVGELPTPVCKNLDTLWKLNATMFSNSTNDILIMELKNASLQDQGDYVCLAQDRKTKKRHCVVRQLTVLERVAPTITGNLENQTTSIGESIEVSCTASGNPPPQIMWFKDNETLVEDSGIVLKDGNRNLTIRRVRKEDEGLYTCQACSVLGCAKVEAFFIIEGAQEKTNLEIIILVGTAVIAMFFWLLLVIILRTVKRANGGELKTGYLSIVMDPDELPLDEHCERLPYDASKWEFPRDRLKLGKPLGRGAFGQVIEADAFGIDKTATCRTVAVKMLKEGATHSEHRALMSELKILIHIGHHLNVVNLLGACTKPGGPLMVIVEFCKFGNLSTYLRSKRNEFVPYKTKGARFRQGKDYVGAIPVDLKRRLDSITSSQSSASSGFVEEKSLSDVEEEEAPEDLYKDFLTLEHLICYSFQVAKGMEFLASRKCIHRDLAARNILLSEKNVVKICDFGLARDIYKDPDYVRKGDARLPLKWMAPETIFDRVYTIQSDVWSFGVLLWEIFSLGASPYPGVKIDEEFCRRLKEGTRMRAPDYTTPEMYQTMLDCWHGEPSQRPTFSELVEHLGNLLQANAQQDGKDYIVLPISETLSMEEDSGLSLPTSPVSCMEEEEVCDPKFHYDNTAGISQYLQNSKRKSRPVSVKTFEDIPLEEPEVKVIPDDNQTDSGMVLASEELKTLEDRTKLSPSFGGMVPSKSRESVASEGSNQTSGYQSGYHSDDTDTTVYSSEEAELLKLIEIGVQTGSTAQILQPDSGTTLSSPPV
T4 sequence (P04626 23-1255): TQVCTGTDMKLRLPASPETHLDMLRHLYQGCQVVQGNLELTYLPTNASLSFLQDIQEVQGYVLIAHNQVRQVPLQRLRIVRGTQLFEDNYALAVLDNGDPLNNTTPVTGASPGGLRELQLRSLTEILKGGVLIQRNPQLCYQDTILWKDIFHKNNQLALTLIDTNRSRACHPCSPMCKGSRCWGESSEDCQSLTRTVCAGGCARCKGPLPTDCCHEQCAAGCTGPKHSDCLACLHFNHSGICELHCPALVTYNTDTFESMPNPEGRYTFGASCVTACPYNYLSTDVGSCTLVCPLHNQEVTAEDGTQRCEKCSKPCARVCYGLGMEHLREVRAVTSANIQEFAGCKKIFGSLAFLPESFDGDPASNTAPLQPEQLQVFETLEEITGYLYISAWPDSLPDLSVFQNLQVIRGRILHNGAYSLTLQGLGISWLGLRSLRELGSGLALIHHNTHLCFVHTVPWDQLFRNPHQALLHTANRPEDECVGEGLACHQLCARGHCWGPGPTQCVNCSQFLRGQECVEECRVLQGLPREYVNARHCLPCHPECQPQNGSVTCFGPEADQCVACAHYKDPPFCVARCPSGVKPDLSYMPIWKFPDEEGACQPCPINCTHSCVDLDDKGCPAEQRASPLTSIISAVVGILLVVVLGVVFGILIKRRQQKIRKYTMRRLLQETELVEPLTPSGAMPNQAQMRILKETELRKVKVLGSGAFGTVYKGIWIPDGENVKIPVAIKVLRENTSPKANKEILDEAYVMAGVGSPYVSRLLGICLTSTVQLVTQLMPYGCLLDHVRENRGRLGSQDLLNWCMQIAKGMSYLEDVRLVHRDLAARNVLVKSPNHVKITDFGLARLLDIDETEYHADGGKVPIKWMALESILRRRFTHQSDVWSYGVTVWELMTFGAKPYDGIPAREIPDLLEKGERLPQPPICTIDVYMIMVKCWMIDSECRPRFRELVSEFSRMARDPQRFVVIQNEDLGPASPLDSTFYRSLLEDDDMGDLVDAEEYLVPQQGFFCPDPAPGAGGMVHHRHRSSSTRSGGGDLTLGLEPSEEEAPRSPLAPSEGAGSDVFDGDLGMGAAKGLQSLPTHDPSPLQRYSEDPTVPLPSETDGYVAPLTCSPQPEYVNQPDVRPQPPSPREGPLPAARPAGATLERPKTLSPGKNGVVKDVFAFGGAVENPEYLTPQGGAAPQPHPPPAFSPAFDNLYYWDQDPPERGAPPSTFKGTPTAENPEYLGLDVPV
T1 sequence (P00533 25-1210): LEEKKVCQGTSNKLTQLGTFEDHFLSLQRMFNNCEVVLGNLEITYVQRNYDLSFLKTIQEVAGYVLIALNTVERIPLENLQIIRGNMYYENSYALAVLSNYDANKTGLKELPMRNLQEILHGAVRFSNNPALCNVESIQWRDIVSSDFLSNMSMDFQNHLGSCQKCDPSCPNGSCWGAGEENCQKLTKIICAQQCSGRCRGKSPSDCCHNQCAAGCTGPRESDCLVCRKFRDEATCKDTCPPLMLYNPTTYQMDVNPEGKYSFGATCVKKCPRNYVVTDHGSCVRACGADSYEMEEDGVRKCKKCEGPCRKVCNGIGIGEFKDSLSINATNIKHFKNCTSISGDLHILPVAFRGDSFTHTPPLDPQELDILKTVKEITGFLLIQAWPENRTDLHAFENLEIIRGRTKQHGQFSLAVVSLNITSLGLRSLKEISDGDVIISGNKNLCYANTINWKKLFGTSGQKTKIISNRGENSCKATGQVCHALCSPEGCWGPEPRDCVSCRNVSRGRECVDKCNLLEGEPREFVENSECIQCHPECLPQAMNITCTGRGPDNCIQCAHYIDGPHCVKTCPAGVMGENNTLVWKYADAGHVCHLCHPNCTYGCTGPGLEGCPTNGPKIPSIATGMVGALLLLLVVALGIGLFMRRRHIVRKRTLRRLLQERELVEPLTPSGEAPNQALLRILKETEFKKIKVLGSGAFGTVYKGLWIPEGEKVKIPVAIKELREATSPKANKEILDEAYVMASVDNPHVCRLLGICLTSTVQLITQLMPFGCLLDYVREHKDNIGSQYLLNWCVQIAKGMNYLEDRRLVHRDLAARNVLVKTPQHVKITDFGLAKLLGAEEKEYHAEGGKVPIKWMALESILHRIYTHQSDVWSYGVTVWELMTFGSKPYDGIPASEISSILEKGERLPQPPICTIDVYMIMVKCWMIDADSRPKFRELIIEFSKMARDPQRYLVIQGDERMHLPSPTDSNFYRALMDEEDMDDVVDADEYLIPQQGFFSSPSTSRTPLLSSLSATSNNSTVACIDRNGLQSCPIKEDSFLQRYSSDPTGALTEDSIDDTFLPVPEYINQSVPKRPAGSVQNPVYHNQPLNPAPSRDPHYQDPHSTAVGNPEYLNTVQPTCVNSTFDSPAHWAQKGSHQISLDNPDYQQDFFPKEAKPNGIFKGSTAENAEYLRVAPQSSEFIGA

The IC50 is the point on the concentration scale where inhibition reaches its midpoint. As to `O=C(N/N=C/c1cc(Br)ccc1O)c1ccc(Nc2ncnc3[nH]ccc23)cc1` [Compound 5l, (E)-4-((7H-Pyrrolo[2,3-d]pyrimidin-4-yl)amino)-N’-(5-bromo-2-hydroxybenzylidene)benzohydrazide], the IC50 in series [1] came to 41.3 ± 2.4 µM; in series [2], 36.3 ± 2.6 µM; in [3], 47.1 ± 2.5 µM; in series [4], 46.1 ± 2.4 µM; in series [5] it was 406 nM; in series [6] it was 1200 nM. In addition, the IC50 in series [7] is 599 nM; in series [8], 193 nM; in series [9], 29 to 59 µM.
`CCN(CC)CCNC(=O)c1c(C)[nH]c(/C=C2\C(=O)Nc3ccc(F)cc32)c1C` [Sunitinib, reference compound]: the IC50 in series [4] was determined as 21.8 ± 1.7 µM.
Usually melting point stands for the temperature, or range, at which the solid turns liquid. `O=C(N/N=C/c1ccc(Br)cc1)c1ccc(Nc2ncnc3[nH]ccc23)cc1` [Compound 5d, (E)-4-((7H-Pyrrolo[2,3-d]pyrimidin-4-yl)amino)-N’-(4-bromobenzylidene)benzohydrazide]: the melting point was 321 °C. Also, the concentration for half-maximal inhibition (IC50) in series [1] was determined as 81.5 ± 4 µM. For the same compound, the IC50 in series [2] was determined as 62.4 ± 3.5 µM. Moreover, in series [3], it took 88.2 ± 4.5 µM to reach half-maximal inhibition (IC50). In addition, in series [4], the IC50 was 95.8 ± 5.1 µM.
On the same counts, the results for `O=C(N/N=C/c1cccc(Br)c1)c1ccc(Nc2ncnc3[nH]ccc23)cc1` [Compound 5c, (E)-4-((7H-Pyrrolo[2,3-d]pyrimidin-4-yl)amino)-N’-(3-bromobenzylidene)benzohydrazide] are 296 °C, 75.8 ± 3.9 µM, 48.5 ± 2.9 µM, 80.7 ± 4 µM and 85.5 ± 4.1 µM.
`O=C(N/N=C/c1ccccc1)c1ccc(Nc2ncnc3[nH]ccc23)cc1` [Compound 5a, (E)-4-((7H-Pyrrolo[2,3-d]pyrimidin-4-yl)amino)-N’-benzylidenebenzohydrazide] came in with a melting point of 294 °C. Moreover, the IC50 in series [1] amounted to 56.2 ± 3.2 µM. Moreover, inhibition in series [2] was half-maximal at 43.1 ± 2.7 µM (IC50). Besides, in series [3], the IC50 worked out at 64.9 ± 3.6 µM. The compound also displayed an IC50 in series [4] of 68.2 ± 3.3 µM. For the same compound, the IC50 in series [9] was 43.1 to 68.2 µM.
Regarding `O=C(N/N=C/c1ccccc1Cl)c1ccc(Nc2ncnc3[nH]ccc23)cc1` [Compound 5e, (E)-4-((7H-Pyrrolo[2,3-d]pyrimidin-4-yl)amino)-N’-(2-chlorobenzylidene)benzohydrazide], the IC50 in [1] amounted to 48.1 ± 2.6 µM; in series [2], 29.1 ± 2.5 µM; in [3], 55.3 ± 3.1 µM; in series [4], 53 ± 2.9 µM; in series [5] it was 1140 nM; in series [6], 593 nM. In addition, the figures for the IC50 in [7], in series [8] and in series [9] were 2120 nM, 335 nM and 29 to 59 µM, respectively.
The compound `O=C(N/N=C/c1cccc(C(F)(F)F)c1)c1ccc(Nc2ncnc3[nH]ccc23)cc1` [Compound 5m, (E)-4-((7H-Pyrrolo[2,3-d]pyrimidin-4-yl)amino)-N’-(3-(trifluoromethyl)benzylidene)benzohydrazide] registered a melting point of 280 °C. This compound also returned an IC50 in series [1] of 53.7 ± 3 µM. This compound also had an IC50 in series [2] of 39.8 ± 2.7 µM. In [3], this compound showed a half-maximal inhibitory concentration (IC50) of 61.9 ± 3.3 µM. Moreover, the IC50 in series [4] is 64.5 ± 3.4 µM.
`CN[C@@H]1C[C@H]2O[C@@](C)([C@@H]1OC)n1c3ccccc3c3c4c(c5c6ccccc6n2c5c31)C(=O)NC4` [Staurosporine, reference compound]: the “Protein Expression (Pg/mL) Bax” value in series [10] is 276.9 ± 2.26 pg/mL. Moreover, the “Protein Expression (Pg/mL) Bcl-2” value in series [11] amounted to 4.404 ± 0.09 pg/mL. Also, the “Protein Expression (Pg/mL) Caspase-3” value in [12] came to 684.6 ± 13.4 pg/mL.
In turn, `O=C(N/N=C/c1ccccc1Br)c1ccc(Nc2ncnc3[nH]ccc23)cc1` [Compound 5b, (E)-4-((7H-Pyrrolo[2,3-d]pyrimidin-4-yl)amino)-N’-(2-bromobenzylidene)benzohydrazide] yielded a melting point of 294 °C. Besides, the IC50 in series [1] was determined as 79.2 ± 4.1 µM. In addition, in series [2], the midpoint of inhibition, the IC50, lay at 53.2 ± 3.1 µM. The IC50 in series [3] is 83.9 ± 4.3 µM. The compound further displayed an IC50 in series [4] of 90.6 ± 4.7 µM.
The compound `O=C(N/N=C/c1cccc(Cl)c1)c1ccc(Nc2ncnc3[nH]ccc23)cc1` [Compound 5f, (E)-4-((7H-Pyrrolo[2,3-d]pyrimidin-4-yl)amino)-N’-(3-chlorobenzylidene)benzohydrazide] gave a melting point of 281 °C. This compound also came in with an IC50 in series [1] of 86.6 ± 4.6 µM. Further, inhibition in [2] was half-maximal at 74.6 ± 3.9 µM (IC50). For the same compound, the half-inhibitory concentration (IC50) in series [3] was found to be 94.7 ± 4.9 µM. The IC50 in series [4] was over 100 µM.
On the same counts, the results for `O=C(N/N=C/c1ccc(F)cc1)c1ccc(Nc2ncnc3[nH]ccc23)cc1` [Compound 5j, (E)-4-((7H-Pyrrolo[2,3-d]pyrimidin-4-yl)amino)-N’-(4-fluorobenzylidene)benzohydrazide] are 309 °C, 58.5 ± 3.3 µM, 42.6 ± 2.8 µM, 66.4 ± 3.6 µM and 71.7 ± 3.5 µM.
On the same counts, the results for `O=C(N/N=C/c1ccc(Cl)cc1)c1ccc(Nc2ncnc3[nH]ccc23)cc1` [Compound 5g, (E)-4-((7H-Pyrrolo[2,3-d]pyrimidin-4-yl)amino)-N’-(4-chlorobenzylidene)benzohydrazide] are 314 °C, 67.6 ± 3.7 µM, 51.9 ± 3 µM, 73.3 ± 3.9 µM and 79.7 ± 3.9 µM.
As to `O=C(N/N=C/c1ccccc1F)c1ccc(Nc2ncnc3[nH]ccc23)cc1` [Compound 5h, (E)-4-((7H-Pyrrolo[2,3-d]pyrimidin-4-yl)amino)-N’-(2-fluorobenzylidene)benzohydrazide], the IC50 in series [1] amounted to 45.2 ± 2.5 µM; in series [2], 33.2 ± 2.4 µM; in [3] it was 52.4 ± 2.9 µM; in series [4], 49.9 ± 2.8 µM; in series [5] it was 636 nM; in series [6], 1040 nM. For the same compound, the IC50 in [7] was 1020 nM; in series [8] it was 206 nM; in [9], 29 to 59 µM.
`O=C(N/N=C/c1cccc(F)c1)c1ccc(Nc2ncnc3[nH]ccc23)cc1` [Compound 5i, (E)-4-((7H-Pyrrolo[2,3-d]pyrimidin-4-yl)amino)-N’-(3-fluorobenzylidene)benzohydrazide] showed a melting point of 295 °C. In addition, the IC50 in series [1] was determined as 63.8 ± 3.5 µM. The compound further showed an IC50 in series [2] of 45 ± 2.8 µM. In series [3], this compound gave an IC50 of 69.9 ± 3.8 µM. In [4], this compound showed an IC50 of 76.1 ± 3.7 µM.
